From patent US20160082105A1, “Antibody Buffering of a Ligand in Vivo” (ARROWSMITH TECHNOLOGIES CORPORATION, priority 2004, published 2016)
Where two headings read alike, the source gives them in different places.

Legend:
[1] = Antibody buffering in plasma: total Ox after jugular infusion; type: in vivo, rat; conditions: for t1/2 of Ox (FIG. 6): 5 animals per point
Text: Timepoints were again taken and analyzed as above.
To determine its pharmacokinetic behavior, tritiated Ox was infused into a rat through a jugular cannula, and elimination of Ox was followed through blood sampling, separation of the plasma by centrifugation, and scintillation counting of the plasma.

[2] = Protocol: Samples were prepared for injection: 4.54 nmol anti-Ox antibody and 2.27 nmol Ox; 4.54 nmol D1.3 control antibody and 2.27 nmol Ox; or no antibody and 2.27 nmol Ox. Each sample was diluted to 1 ml with sterile PBS. The samples were warmed to 37° C., and then infused over 1 minute through the jugular vein cannula in Sprague-Dawley rats as described above. At various timepoints, 0.45 ml of blood was withdrawn and immediately centrifuged to separate out the plasma. 100 μl of plasma were counted directly by placing the plasma into 5 ml of Scintiverse II and counting in a Beckman LS6500 Scintillation Counter. 100 μl plasma was used in bound vs. free Ox experiments described below. For some rats, 0.1 ml of blood minus plasma was analyzed. These samples were first decolorized by incubating at 40° C. in 0.3 ml of Scintigest (Fisher Scientific):isopropanol (1:2 v/v) for one hour. Then 0.2 ml of 30% H2O2 was added dropwise, and the solution was incubated at room temperature for 15 minutes. Pipetting up and down was needed to break up some clumps. The solution was incubated at 40° C. before placing it into 5 ml of Scintiverse II. The samples were allowed to sit overnight before counting to reduce chemiluminescence. Control samples were prepared using known amounts of Ox to aid in analysis.
The rat anti-mouse kappa antibody 187.1 (see Example 1) was isolated from spent culture medium and purified by passage over a Protein A-Sepharose affinity column. Ten g of CNBr-activated Sepharose 4 Fast Flow (Amersham Biosciences) were washed and coupled with 187.1 according to manufacturer's protocol. Two mg 187.1 per 10 g of swelled resin were used.
During the antibody buffering experiments, 100 μl of plasma was loaded onto the 187.1 column immediately after centrifugation. Three ml of PBS followed by three ml of 0.2 M glycine (pH 2.5) were then applied onto the column as described in Example 1. All PBS fractions and all glycine fractions were collected separately for each timepoint and dried down in the SpeedVac. The residue was resuspended in 150 μl PBS and then transferred to a scintillation vial with 5 ml Scintiverse II for counting.
Samples of NQ11/7.12 and Ox were prepared and infused into Sprague-Dawley rats as described above. Blood samples (0.4 ml) were taken at time 1, 10, 20, 50, 90, and 120 minutes. 100 μl plasma were counted directly and 100 μl were placed on a 187.1 column to separate bound and free Ox. At 24 hours and again at 48 hours following the first administration, 2.27 nmol Ox in 0.5 ml PBS was infused over 1 minute through the jugular cannula. Timepoints were again taken and analyzed as above.
Bound and free forms of Ox in plasma fractions from the animals were separated on an affinity column. […] An immobilized rat anti-mouse kappa antibody was used to trap antibody-Ox complexes while free Ox eluted from the column with a PBS wash (free Ox fraction).

[3] = Ox alone re-administered at 24 hours and 48 hours after a single NQ11/7.12 + Ox infusion
[4] = Ox with D1.3, biphasic elimination
[5] = Ox administered alone or with D1.3

With `O=C(O)CCCNC=C1N=C(c2ccccc2)OC1=O` [Ox, 2-phenyl-oxazol-5-one-γ-amino butyrate] the “increase in Ox half-life in plasma with anti-Ox antibody” value ([1]; NQ11/7.12 vs D1.3) was “seventeen-fold”, the “t1/2 of Ox (FIG. 6)” value ([1]; Ox administered with NQ11/7.12, jugular vein cannula) was 19.7 min and the “t1/2 of Ox (FIG. 6)” value ([1]; Ox administered with control antibody D1.3, jugular vein cannula) was 1.2 min. For the same compound, the “total Ox pharmacokinetic lifetime in plasma, long term buffering” value [1, 3] was “only small changes”, the “Ox elimination half-life from plasma” value ([1]; Ox alone, jugular infusion) was 1.2 min and the “adverse effects in the animal subjects” value ([1]; Ox infused with NQ11/7.12 or D1.3, rats) was “No adverse effects were noted”. For the same compound, the “Ox elimination half-life from plasma, major (fast) phase” value [1, 4] was 1.2 ± 0.2 min, the “Ox elimination half-life from plasma, smaller (slow) phase” value [1, 4] was 10 ± 2 min and the “Ox elimination half-life from plasma” value ([1]; Ox with twice the molar amount of NQ11/7.12) was 20 ± 2 min. For the same compound, the “Ox concentration in the cellular fraction of blood, of the total Ox concentration in the plasma” value ([1]; rat, in vivo) was 1-2%, the “free Ox elimination half-life in plasma” value [2, 5] was 6.0 ± 1 min and the “initial free Ox concentration in plasma” value [2, 5] was 6.8 nM. For the same compound, the “free Ox concentration in plasma after an hour” value ([2]; Ox administered with NQ11/7.12) was 0.8 nM, the “free Ox elimination half-life in plasma” value ([2]; Ox administered with NQ11/7.12) was 41 ± 6 min and the “initial free Ox concentration in plasma” value ([2]; Ox administered with NQ11/7.12) was 2.2 nM. For the same compound, the “decline of free Ox concentration in plasma compared with NQ11/7.12” value ([2]; Ox administered with NQ16/113.8 or NQ22/16.4) was “declined much more rapidly”, the “free Ox concentration in plasma, long term buffering” value [2, 3] was “quickly normalized” and the “fraction of unbuffered Ox eliminated from plasma before the first timepoint” value ([2]; Ox without anti-Ox antibody) was “more than half”.
